Test results taken from patent US20250230193A1, “CYCLIC COMPOUND HAVING SELECTIVE KRAS INHIBITORY EFFECT ON HRAS AND NRAS” (CHUGAI SEIYAKU KABUSHIKI KAISHA, priority 2022, published 2025).
Where a SMILES comes first, the peptide text is derived from it. Bridges are numbered along the chain shown (N, C = ends). [ ]: non-standard residue; d: D form. The star is where a group is joined. hPhe(3-Cl-4-CF3) = N[C@@H](CCc1ccc(C(F)(F)F)c(Cl)c1)C(=O)O; NPrPhe(4-CF3) = CCCN[C@@H](Cc1ccc(C(F)(F)F)cc1)C(=O)O; NMeGly(cPent) = CN[C@H](C(=O)O)C1CCCC1; Gly(N-propargyl) = C#CCNCC(=O)O; NMeD = CN[C@@H](CC(=O)O)C(=O)O; NMeL = CN[C@@H](CC(C)C)C(=O)O; Morpholide = C1CN(*)CCO1; Ac5c = NC1(C(=O)O)CCCC1; Sar = CNCC(=O)O

What was measured:
[1] = molecular target: GDP-bound NRAS wild-type protein (Homo sapiens, UniProt P01111); assay: Binding to NRAS by surface plasmon resonance (SPR), Single Cycle Kinetics; details: for NRAS/KRAS (ratio of KD value for NRAS to KD value for KRAS) / NRAS/KRAS (ratio of KD value with respect to NRAS to KD value with respect to KRAS): GDP-bound NRAS wild-type vs GDP-bound KRAS wild-type
[2] = molecular target: GDP-bound HRAS wild-type protein (Homo sapiens, UniProt P01112); assay: Binding to HRAS by surface plasmon resonance (SPR), Single Cycle Kinetics; details: for HRAS/KRAS (ratio of KD value for HRAS to KD value for KRAS) / HRAS/KRAS (ratio of KD value with respect to HRAS to KD value with respect to KRAS): GDP-bound HRAS wild-type vs GDP-bound KRAS wild-type
Sequence of GDP-bound HRAS wild-type protein (P01112 whole entry): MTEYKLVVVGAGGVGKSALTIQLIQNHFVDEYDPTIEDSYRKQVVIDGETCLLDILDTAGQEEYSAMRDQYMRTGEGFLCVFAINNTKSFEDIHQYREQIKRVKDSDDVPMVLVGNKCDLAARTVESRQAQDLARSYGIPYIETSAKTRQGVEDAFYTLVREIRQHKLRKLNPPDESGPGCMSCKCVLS

Sequence of GDP-bound NRAS wild-type protein (P01111 whole entry): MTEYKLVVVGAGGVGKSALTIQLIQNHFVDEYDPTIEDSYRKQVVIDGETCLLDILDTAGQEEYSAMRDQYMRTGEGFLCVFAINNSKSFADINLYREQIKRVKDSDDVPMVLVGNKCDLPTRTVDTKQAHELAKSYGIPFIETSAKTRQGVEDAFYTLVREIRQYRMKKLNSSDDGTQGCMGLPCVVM

Q: With `CCO[C@@H]1C[C@H]2C(=O)NC3(CC(C)(C)C3)C(=O)N(C)[C@@H](C(CC)CC)C(=O)N(C)[C@H](C(=O)N3CCCC3)CC(=O)N(C)[C@H]3CCC/C=C/c4ccc(cc4)C[C@@H](C(=O)N(C)CC(=O)N[C@@H](CCc4cc(F)c(C(F)(F)F)c(F)c4)C(=O)N2C1)N1CC/C=C\C[C@@H](C1=O)N(C)C(=O)CN(C)C(=O)[C@H]([C@@H](C)CC)NC3=O` [PP2576] as the molecule, how does the “NRAS/KRAS (ratio of KD value with respect to GDP-bound NRAS wild-type protein to KD value with respect to KRAS)” value ([1]; class symbols) read?
A: A (a compound having 10 or more and less than 20 is denoted as A)

Q: What about the “HRAS/KRAS (ratio of KD value with respect to GDP-bound HRAS wild-type protein to KD value with respect to KRAS)” value ([2]; class symbols) of the same molecule?
A: A (a compound having 10 or more and less than 20 is denoted as A)

Q: With `CCCO[C@@H]1C[C@H]2C(=O)N(C)C3(CC(C)(C)C3)C(=O)N(C)[C@@H](C(CC)CC)C(=O)N(C)[C@H](C(=O)N(C)C)CC(=O)N(C)[C@@H](COC)C(=O)N[C@@H]([C@@H](C)CC)C(=O)N(C)CC(=O)N(C)[C@H]3C/C=C\CCN(C3=O)[C@@H](Cc3ccc(C)cc3)C(=O)N(C)CC(=O)N[C@@H](CCc3ccc(Cl)c(Cl)c3)C(=O)N2C1` [PP2812] as the molecule, how does the “NRAS/KRAS (ratio of KD value with respect to GDP-bound NRAS wild-type protein to KD value with respect to KRAS)” value ([1]; class symbols) read?
A: AA (a compound having 20 or more is denoted as AA)

Q: What about the “HRAS/KRAS (ratio of KD value with respect to GDP-bound HRAS wild-type protein to KD value with respect to KRAS)” value ([2]; class symbols) of the same molecule?
A: A (a compound having 10 or more and less than 20 is denoted as A)

Q: For `CCO[C@@H]1C[C@H]2C(=O)NC3(CC(C)(C)C3)C(=O)N(C)[C@@H](C3CCCC3)C(=O)N(C)[C@H](C(=O)N(C)C)CC(=O)N(C)[C@@H](C(C)C)C(=O)N[C@@H]([C@@H](C)CC)C(=O)N(C)CC(=O)N(C)[C@H]3C/C=C\CCN(C3=O)[C@@H](Cc3ccc(C(F)(F)F)cc3)C(=O)N(C)CC(=O)N[C@@H](CCc3ccc(C(F)(F)F)c(OC)c3)C(=O)N2C1` [PP1979], which “NRAS/KRAS (ratio of KD value for NRAS to KD value for KRAS)” value ([1]; KD ratio, SPR) is on record?
A: AA (a compound having 20 or more is denoted as AA)

Q: What about the “HRAS/KRAS (ratio of KD value for HRAS to KD value for KRAS)” value ([2]; KD ratio, SPR) of the same molecule?
A: A (a compound having 10 or more and less than 20 is denoted as A)

Q: How did the “NRAS/KRAS (ratio of KD value with respect to NRAS to KD value with respect to KRAS)” value ([1]; SPR) turn out when `CCO[C@@H]1C[C@H]2C(=O)NC3(CC(C)(C)C3)C(=O)N(C)[C@@H](C(CC)CC)C(=O)N(C)[C@H](C(=O)N3CCCC3)CC(=O)N(C)[C@@H](COC)C(=O)N[C@@H]([C@@H](C)CC)C(=O)N(C)CC(=O)N(C)[C@H]3C/C=C\CCN(C3=O)[C@@H](Cc3ccc(C(F)(F)F)cc3)C(=O)N(C)CC(=O)N[C@@H](CCc3ccc(C(F)(F)F)c(OC)c3)C(=O)N2C1` [PP2159] was run?
A: AA (a compound having 20 or more is denoted as AA)

Q: What about the “HRAS/KRAS (ratio of KD value with respect to HRAS to KD value with respect to KRAS)” value ([2]; SPR) of the same molecule?
A: A (a compound having 10 or more and less than 20 is denoted as A)

Q: With `CCO[C@@H]1C[C@H]2C(=O)NC3(CCCC3)C(=O)N(C)[C@@H](C3CCCC3)C(=O)N(C)[C@H](C(=O)N(C)C)CC(=O)N(C)[C@@H](C)C(=O)N[C@@H]([C@@H](C)CC)C(=O)N(C)CC(=O)N(C)[C@H]3C/C=C\CCN(C3=O)[C@@H](Cc3ccc(C(F)(F)F)cc3)C(=O)N(C)CC(=O)N[C@@H](CCc3cc(F)c(C(F)(F)F)c(F)c3)C(=O)N2C1` [PP1104] as the molecule, how does the “NRAS/KRAS (ratio of KD value with respect to NRAS to KD value with respect to KRAS)” value ([1]; KD ratio, SPR) read?
A: A (a compound having 10 or more and less than 20 is denoted as A)

Q: What about the “HRAS/KRAS (ratio of KD value with respect to HRAS to KD value with respect to KRAS)” value ([2]; KD ratio, SPR) of the same molecule?
A: A (a compound having 10 or more and less than 20 is denoted as A)

Q: With `C#CCN1CC(=O)N(C)CC(=O)N(CCC)[C@@H](Cc2ccc(C(F)(F)F)cc2)C(=O)N(C)CC(=O)N[C@@H](CCc2ccc(C(F)(F)F)c(Cl)c2)C(=O)N2CCC[C@H]2C(=O)NC2(CCCC2)C(=O)N(C)[C@@H](C2CCCC2)C(=O)N(C)[C@H](C(=O)N2CCOCC2)CC(=O)N(C)[C@@H](CC(C)C)C(=O)N[C@@H]([C@@H](C)CC)C1=O` [PP0750] ([NMeL]I[Gly(N-propargyl)][Sar][NPrPhe(4-CF3)][Sar][hPhe(3-Cl-4-CF3)]P[Ac5c][NMeGly(cPent)][NMeD]-Morpholide; lactam N-11) as the molecule, how does the “NRAS/KRAS (ratio of KD value with respect to GDP-bound NRAS wild-type protein to KD value with respect to KRAS)” value ([1]; SPR) read?
A: B (a compound having 3 or more and less than 10 is denoted as B)

Q: And the “HRAS/KRAS (ratio of KD value with respect to GDP-bound HRAS wild-type protein to KD value with respect to KRAS)” value ([2]; SPR)?
A: C (A compound having a KD ratio of 0.1 or more and less than 3 is denoted as C)

Q: What does the source list for `CC[C@H](C)[C@@H]1NC(=O)[C@H](C2CC2)N(C)C(=O)C[C@@H](C(=O)N(C)CC)N(C)C(=O)[C@H](C2CCCC2)N(C)C(=O)C2(CC(C)(C)C2)NC(=O)[C@@H]2C[C@H](C)CN2C(=O)[C@H](CCc2cc(F)c(C(F)(F)F)c(F)c2)NC(=O)CN(C)C(=O)[C@H](Cc2ccc(C(F)(F)F)cc2)N2CC/C=C\C[C@@H](C2=O)N(C)C(=O)CN(C)C1=O` [PP1980]?
A: NRAS/KRAS (ratio of KD value for NRAS to KD value for KRAS) ([1]; KD ratio, SPR): A (a compound having 10 or more and less than 20 is denoted as A); HRAS/KRAS (ratio of KD value for HRAS to KD value for KRAS) ([2]; KD ratio, SPR): B (a compound having 3 or more and less than 10 is denoted as B)
